The values below come from publication PMC3944508, “Six New Tetraprenylated Alkaloids from the South China Sea Gorgonian Echinogorgia pseudossapo” (Marine Drugs, 2014).

In general, pIC50 refers to −log10 of the IC50, conventionally taken in molar units. Low readings indicate a large IC50, high ones a small IC50.

What all share (type): biochemical
Assay [1] has as its target T1, PDE4D (phosphodiesterase-4D) (Homo sapiens, UniProt Q08499). Briefly: in vitro PDE inhibition assay, % inhibition at […]. The note with it: read-out: Inhibition (%) of Compounds at 50 μM / PDE4D.
For assay [2], the target named is T1, PDE4D (phosphodiesterase-4D). Briefly: in vitro PDE inhibition assay (previously reported method).
Assay [3] concerns the target PDE5A (Homo sapiens, UniProt O76074). Briefly: in vitro PDE inhibition assay, % inhibition at […]. Particulars: read-out: Inhibition (%) of Compounds at 50 μM / PDE5A.

pIC50: −log10 of the molar value.

T1 sequence (Q08499 whole entry): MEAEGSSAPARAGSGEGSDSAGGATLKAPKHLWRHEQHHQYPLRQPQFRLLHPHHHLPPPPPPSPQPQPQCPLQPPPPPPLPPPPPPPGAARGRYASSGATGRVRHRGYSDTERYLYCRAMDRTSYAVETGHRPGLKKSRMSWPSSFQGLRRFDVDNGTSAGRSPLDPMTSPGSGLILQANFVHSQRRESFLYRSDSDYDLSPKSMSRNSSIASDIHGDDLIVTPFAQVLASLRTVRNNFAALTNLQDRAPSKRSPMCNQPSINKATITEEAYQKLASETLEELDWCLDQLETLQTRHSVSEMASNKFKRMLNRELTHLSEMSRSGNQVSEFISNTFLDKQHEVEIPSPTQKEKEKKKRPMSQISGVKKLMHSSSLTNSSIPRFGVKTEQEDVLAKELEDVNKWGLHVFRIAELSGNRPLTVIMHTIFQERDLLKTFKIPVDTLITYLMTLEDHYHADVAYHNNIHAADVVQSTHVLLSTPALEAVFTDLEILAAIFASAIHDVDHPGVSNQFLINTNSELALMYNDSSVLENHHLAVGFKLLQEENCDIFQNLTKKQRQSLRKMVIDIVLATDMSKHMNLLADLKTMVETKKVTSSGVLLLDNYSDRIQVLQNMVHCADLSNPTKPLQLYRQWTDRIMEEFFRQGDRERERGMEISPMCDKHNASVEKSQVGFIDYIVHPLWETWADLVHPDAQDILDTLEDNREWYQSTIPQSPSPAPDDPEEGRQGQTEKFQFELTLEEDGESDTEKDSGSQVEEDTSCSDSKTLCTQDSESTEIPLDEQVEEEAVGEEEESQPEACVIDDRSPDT

For the compound `CC(C)=CC(=O)C/C(C)=C\CC/C(C)=C/CC/C(C)=C/Cn1cnc2c1c(=O)ncn2C` [compound 2, malonganenone M], the inhibition at 50 µM in assay [1] was determined as 72%.
`CNC(=O)c1c(N(C)C=O)ncn1C/C=C(\C)CC/C=C(\C)CC/C=C(\C)CC(=O)C=C(C)C` [compound 4, malonganenone O]: the inhibition at 50 µM in assay [1] came out at 79%.
Still for that read-out and setting: then `CNC(=O)c1c(N(C)C=O)ncn1C/C=C(\C)CC/C=C(\C)CC/C=C(/C)CC(=O)C=C(C)C` [compound 5, malonganenone P], with 75%; and `CC(C)=CC(=O)/C=C(\C)CCC/C(C)=C/CC/C(C)=C/Cn1cnc2c1c(=O)ncn2C` [compound 3, malonganenone N], with 81%.
In the case of `CC(C)=CC(=O)C/C(C)=C/CC/C(C)=C/CC/C(C)=C/Cn1cnc2c1c(=O)ncn2C` [compound 1, malonganenone L], the pIC50 in assay [2] is 5.07. Besides, in assay [3], the inhibition at 50 µM worked out at 53%.
In assay [2], `CNC(=O)c1c(N(C)C=O)ncn1C/C=C(\C)CC/C=C(\C)CCC/C(C)=C\C(=O)C=C(C)C` [compound 6, malonganenone Q] gave a negative logarithm of the IC50 (pIC50) of 4.69.
